In paper PMC5218480 (PLoS ONE, 2017):

Tested on: MV-4-11 cells
Test: Gene expression microarray analysis (Affymetrix PrimeView) and GSEA
Type: cell-based, human
Set-up: RFU PODN (11730768_x_at) / Fold change /veh PODN (11730768_x_at) / RFU LINC00158 (11744669_a_at) / Fold change /veh LINC00158 (11744669_a_at) / RFU DUSP10 (11751237_a_at) / Fold change /veh DUSP10 (11751237_a_at) / RFU ID3 (11757404_x_at) / Fold change /veh ID3 (11757404_x_at) / RFU PLEKHG5 (11737974_s_at) / Fold change /veh PLEKHG5 (11737974_s_at) / RFU LRRC4B (11730491_at) / Fold change /veh LRRC4B (11730491_at) / RFU GIMAP4 (11747438_a_at) / Fold change /veh GIMAP4 (11747438_a_at) / RFU KRT8 (11758183_x_at) / Fold change /veh KRT8 (11758183_x_at) / RFU CNN1 (11734310_a_at) / Fold change /veh CNN1 (11734310_a_at) / RFU VPS37D (11726825_at) / Fold change /veh VPS37D (11726825_at) / RFU C10orf10 (11716522_x_at) / Fold change /veh C10orf10 (11716522_x_at) / RFU KIR2DL2 /// KIR2DL4 /// KIR2DL5A /// KIR2DL5B /// KIR2DS1 /// KIR2DS2 /// KIR2DS3 /// KIR2DS4 /// KIR3DL3 /// KIR3DL3 /// KIR3DS1 (11738374_at) / Fold change /veh KIR2DL2 /// KIR2DL4 /// KIR2DL5A /// KIR2DL5B /// KIR2DS1 /// KIR2DS2 /// KIR2DS3 /// KIR2DS4 /// KIR3DL3 /// KIR3DL3 /// KIR3DS1 (11738374_at) / RFU C1QL1 (11718748_at) / Fold change /veh C1QL1 (11718748_at) / RFU TMPRSS4 (11747572_a_at) / Fold change /veh TMPRSS4 (11747572_a_at) / RFU HAMP (11756126_x_at) / Fold change /veh HAMP (11756126_x_at) / RFU RNFT2 (11725882_a_at) / Fold change /veh RNFT2 (11725882_a_at) / RFU NR4A2 (11747474_a_at) / Fold change /veh NR4A2 (11747474_a_at) / RFU ABCC12 (11746883_a_at) / Fold change /veh ABCC12 (11746883_a_at) / RFU TMEM136 (11760407_x_at) / Fold change /veh TMEM136 (11760407_x_at) / RFU CLDN22 /// WWC2 (11732394_at) / Fold change /veh CLDN22 /// WWC2 (11732394_at) / RFU HLA-DPB1 (11760878_x_at) / Fold change /veh HLA-DPB1 (11760878_x_at) / RFU SPINT1 (11716480_a_at) / Fold change /veh SPINT1 (11716480_a_at) / RFU GAP43 (11754022_s_at) / Fold change /veh GAP43 (11754022_s_at) / RFU A4GNT (11735810_at) / Fold change /veh A4GNT (11735810_at) / RFU PRB3 (11715151_x_at) / Fold change /veh PRB3 (11715151_x_at) / RFU TUBB4B (11761932_at) / Fold change /veh TUBB4B (11761932_at) / RFU CAPN14 (11732068_a_at) / Fold change /veh CAPN14 (11732068_a_at) / RFU TMCC2 (11721928_a_at) / Fold change /veh TMCC2 (11721928_a_at) / RFU IRGQ (11745062_a_at) / Fold change /veh IRGQ (11745062_a_at) / RFU FAM174B (11720279_a_at) / Fold change /veh FAM174B (11720279_a_at) / RFU TMPRSS4 (11748680_a_at) / Fold change /veh TMPRSS4 (11748680_a_at) / RFU FAM212B (11763350_a_at) / Fold change /veh FAM212B (11763350_a_at) / RFU PLEKHG5 (11743358_a_at) / Fold change /veh PLEKHG5 (11743358_a_at) / RFU ZSCAN30 (11745921_a_at) / Fold change /veh ZSCAN30 (11745921_a_at) / RFU CMKLR1 (11741424_a_at) / Fold change /veh CMKLR1 (11741424_a_at) / RFU LOC101060620 /// MAPK8IP1 (11723275_at) / Fold change /veh LOC101060620 /// MAPK8IP1 (11723275_at) / RFU SPTSSB (11747773_x_at) / Fold change /veh SPTSSB (11747773_x_at) / RFU PRSS12 (11739890_at) / Fold change /veh PRSS12 (11739890_at) / RFU BIN1 (11741810_x_at) / Fold change /veh BIN1 (11741810_x_at) / RFU WNT11 (11732464_a_at) / Fold change /veh WNT11 (11732464_a_at) / RFU C10orf10 (11716521_a_at) / Fold change /veh C10orf10 (11716521_a_at) / RFU C5orf56 (11738089_at) / Fold change /veh C5orf56 (11738089_at) / RFU CYB561 (11721691_x_at) / Fold change /veh CYB561 (11721691_x_at) / RFU ANKRD19P (11752326_a_at) / Fold change /veh ANKRD19P (11752326_a_at) / RFU OR2T12 /// OR2T33 /// OR2T8 (11738714_s_at) / Fold change /veh OR2T12 /// OR2T33 /// OR2T8 (11738714_s_at) / RFU VCAN (11748164_a_at) / Fold change /veh VCAN (11748164_a_at) / RFU JSRP1 (11732532_at) / Fold change /veh JSRP1 (11732532_at) / RFU KRTAP10-11 (11738290_x_at) / Fold change /veh KRTAP10-11 (11738290_x_at) / RFU MYO3A (11730013_a_at) / Fold change /veh MYO3A (11730013_a_at) / RFU EBF3 (11725865_a_at) / Fold change /veh EBF3 (11725865_a_at) / RFU CAMK2N1 (11719241_x_at) / Fold change /veh CAMK2N1 (11719241_x_at) / RFU C5orf56 (11738088_a_at) / Fold change /veh C5orf56 (11738088_a_at) / RFU OLFML3 (11715873_a_at) / Fold change /veh OLFML3 (11715873_a_at) / RFU LOC100653217 /// NTM (11731650_a_at) / Fold change /veh LOC100653217 /// NTM (11731650_a_at) / RFU MAPK11 (11762145_a_at) / Fold change /veh MAPK11 (11762145_a_at) / RFU FIZ1 (11724087_x_at) / Fold change /veh FIZ1 (11724087_x_at) / RFU OASL (11726364_x_at) / Fold change /veh OASL (11726364_x_at) / RFU SOX15 (11748057_x_at) / Fold change /veh SOX15 (11748057_x_at) / RFU CD79A (11719716_a_at) / Fold change /veh CD79A (11719716_a_at) / RFU HIST1H1D (11736915_at) / Fold change /veh HIST1H1D (11736915_at) / RFU CASKIN2 (11723855_a_at) / Fold change /veh CASKIN2 (11723855_a_at) / RFU LOC730098 (11760151_x_at) / Fold change /veh LOC730098 (11760151_x_at) / RFU OR4N2 (11742367_at) / Fold change /veh OR4N2 (11742367_at) / RFU PRRT2 (11749266_a_at) / Fold change /veh PRRT2 (11749266_a_at) / RFU SNX32 (11753110_a_at) / Fold change /veh SNX32 (11753110_a_at) / RFU CDHR5 (11726645_a_at) / Fold change /veh CDHR5 (11726645_a_at) / RFU RCAN1 (11760418_a_at) / Fold change /veh RCAN1 (11760418_a_at) / RFU FAM167A (11723789_a_at) / Fold change /veh FAM167A (11723789_a_at) / RFU FAM26E (11764081_at) / Fold change /veh FAM26E (11764081_at) / RFU ISYNA1 (11749810_s_at) / Fold change /veh ISYNA1 (11749810_s_at) / RFU ACY1 (11761880_at) / Fold change /veh ACY1 (11761880_at) / RFU 11764098_at / Fold change /veh 11764098_at / RFU SAMD14 (11745864_x_at) / Fold change /veh SAMD14 (11745864_x_at) / RFU NPB (11741838_a_at) / Fold change /veh NPB (11741838_a_at) / RFU TMPRSS6 (11731388_a_at) / Fold change /veh TMPRSS6 (11731388_a_at) / RFU KRTAP10-2 (11738614_at) / Fold change /veh KRTAP10-2 (11738614_at) / RFU ARHGAP8 /// PRR5-ARHGAP8 (11727945_x_at) / Fold change /veh ARHGAP8 /// PRR5-ARHGAP8 (11727945_x_at) / RFU KRTAP5-7 /// NADSYN1 (11734609_at) / Fold change /veh KRTAP5-7 /// NADSYN1 (11734609_at) / RFU RASL12 (11751679_a_at) / Fold change /veh RASL12 (11751679_a_at) / RFU CDKN2B (11736163_a_at) / Fold change /veh CDKN2B (11736163_a_at) / RFU PRF1 (11729649_at) / Fold change /veh PRF1 (11729649_at) / RFU, ZNF638 /// ZNF638-IT1 / Fold change vs veh, ZNF638 /// ZNF638-IT1 / RFU, PANK3 / Fold change vs veh, PANK3 / RFU, SH3YL1 / Fold change vs veh, SH3YL1 / RFU, ZEB2 / Fold change vs veh, ZEB2 / RFU, NRIP1 / Fold change vs veh, NRIP1 / RFU, PTTG1IP / Fold change vs veh, PTTG1IP / RFU, CAPN2 / Fold change vs veh, CAPN2 / RFU, MED14 / Fold change vs veh, MED14 / RFU, SNORA58 / Fold change vs veh, SNORA58 / RFU, C1orf63 / Fold change vs veh, C1orf63 / RFU, LRRFIP1 / Fold change vs veh, LRRFIP1 / RFU, NDUFAF7 / Fold change vs veh, NDUFAF7 / RFU, SLC12A2 / Fold change vs veh, SLC12A2 / RFU, IBTK / Fold change vs veh, IBTK / RFU, ESF1 / Fold change vs veh, ESF1 / Fold change vs veh, TMEM50B / RFU, TAOK1 / Fold change vs veh, TAOK1 / RFU, ACBD3 / Fold change vs veh, ACBD3 / RFU, TMA16 / Fold change vs veh, TMA16 / RFU, RWDD3 / Fold change vs veh, RWDD3 / RFU, BCAT1 / Fold change vs veh, BCAT1 / RFU, EDEM3 / Fold change vs veh, EDEM3 / RFU, TMEM33 / Fold change vs veh, TMEM33 / RFU, WDR75 / Fold change vs veh, WDR75 / RFU, AHCTF1 / Fold change vs veh, AHCTF1 / RFU, TFRC / Fold change vs veh, TFRC / RFU, ZDHHC17 / Fold change vs veh, ZDHHC17 / RFU, NOM1 / Fold change vs veh, NOM1 / RFU, ARL8B / Fold change vs veh, ARL8B / RFU, ZBTB11 / Fold change vs veh, ZBTB11 / RFU, TAMM41 / Fold change vs veh, TAMM41 / RFU, KIAA1704 /// LOC100996395 / Fold change vs veh, KIAA1704 /// LOC100996395 / RFU, ING1 / Fold change vs veh, ING1 / RFU, TRMT61B / Fold change vs veh, TRMT61B / RFU, FUBP3 / Fold change vs veh, FUBP3 / RFU, TP53 / Fold change vs veh, TP53 / RFU, TNKS2 / Fold change vs veh, TNKS2 / RFU, ZFP14 / Fold change vs veh, ZFP14 / RFU, ACTR2 / Fold change vs veh, ACTR2 / RFU, PPP3R1 / Fold change vs veh, PPP3R1 / RFU, PIK3R1 / Fold change vs veh, PIK3R1 / RFU, HNRNPA1 / Fold change vs veh, HNRNPA1 / RFU, RNF170 / Fold change vs veh, RNF170 / RFU, ZNF28 / Fold change vs veh, ZNF28 / RFU, RNGTT / Fold change vs veh, RNGTT / RFU, OGT / Fold change vs veh, OGT / RFU, BRD1 / Fold change vs veh, BRD1 / RFU, MARS / Fold change vs veh, MARS / RFU, ZNF655 / Fold change vs veh, ZNF655 / RFU, FAHD1 / Fold change vs veh, FAHD1 / RFU, BDP1 / Fold change vs veh, BDP1 / RFU, LRRCC1 / Fold change vs veh, LRRCC1 / RFU, ARID1A / Fold change vs veh, ARID1A / RFU, ZNF146 / Fold change vs veh, ZNF146 / RFU, ZNF330 / Fold change vs veh, ZNF330 / RFU, GPN3 / Fold change vs veh, GPN3 / RFU, C9orf123 / Fold change vs veh, C9orf123 / RFU, N4BP2L2 / Fold change vs veh, N4BP2L2 / RFU, ARFIP1 / Fold change vs veh, ARFIP1 / RFU, FAM179B / Fold change vs veh, FAM179B / RFU, BCL10 / Fold change vs veh, BCL10 / RFU, UHRF1BP1L / Fold change vs veh, UHRF1BP1L / RFU, BET1 / Fold change vs veh, BET1 / RFU, CNOT2 / Fold change vs veh, CNOT2 / RFU, ZNF268 / Fold change vs veh, ZNF268 / Fold change vs veh, ZNF507 / RFU, DGCR2 / Fold change vs veh, DGCR2 / RFU, WDSUB1 / Fold change vs veh, WDSUB1 / Fold change vs veh, HSP90B1 /// MIR3652 / RFU, ADSS / Fold change vs veh, ADSS / RFU, GK / Fold change vs veh, GK / RFU, ZNF148 / Fold change vs veh, ZNF148 / RFU, TAF9 / Fold change vs veh, TAF9 / RFU, SLC1A5 / Fold change vs veh, SLC1A5 / RFU, SLMO2 / Fold change vs veh, SLMO2 / RFU, ABCC4 / Fold change vs veh, ABCC4 / RFU, LOC101060439 /// RAP1B / Fold change vs veh, LOC101060439 /// RAP1B / RFU, RFX7 / Fold change vs veh, RFX7 / RFU, GTPBP10 / Fold change vs veh, GTPBP10 / RFU, CNEP1R1 / Fold change vs veh, CNEP1R1 / RFU, BIVM-ERCC5 /// ERCC5 / Fold change vs veh, BIVM-ERCC5 /// ERCC5 / RFU, ILF3 / Fold change vs veh, ILF3 / RFU 11762660_at / Fold change /veh 11762660_at / RFU VCAN (11757783_s_at) / Fold change /veh VCAN (11757783_s_at) / RFU DDX43 (11728927_at) / Fold change /veh DDX43 (11728927_at) / RFU KRT8 (11758188_x_at) / Fold change /veh KRT8 (11758188_x_at) / RFU NKD1 (11759106_at) / Fold change /veh NKD1 (11759106_at) / RFU SRD5A1 (11742802_a_at) / Fold change /veh SRD5A1 (11742802_a_at) / RFU TPSAB1 /// TPSB2 (11721975_s_at) / Fold change /veh TPSAB1 /// TPSB2 (11721975_s_at) / RFU GSTM3 (11746129_a_at) / Fold change /veh GSTM3 (11746129_a_at) / RFU IL23R (11737362_x_at) / Fold change /veh IL23R (11737362_x_at) / RFU TMEM51 (11727254_a_at) / Fold change /veh TMEM51 (11727254_a_at) / RFU PIWIL2 (11732686_x_at) / Fold change /veh PIWIL2 (11732686_x_at) / RFU ORM1 (11744905_x_at) / Fold change /veh ORM1 (11744905_x_at) / RFU CCDC152 (11743942_at) / Fold change /veh CCDC152 (11743942_at) / RFU ECM1 (11717891_a_at) / Fold change /veh ECM1 (11717891_a_at) / RFU IL23R (11748794_a_at) / Fold change /veh IL23R (11748794_a_at) / RFU TNFAIP8L3 (11732012_x_at) / Fold change /veh TNFAIP8L3 (11732012_x_at) / RFU MBOAT4 (11741988_at) / Fold change /veh MBOAT4 (11741988_at) / RFU 11764193_at / Fold change /veh 11764193_at / RFU TMEM53 (11763286_at) / Fold change /veh TMEM53 (11763286_at) / RFU MAGEB2 (11727129_at) / Fold change /veh MAGEB2 (11727129_at) / RFU TMEM200A (11744735_a_at) / Fold change /veh TMEM200A (11744735_a_at) / RFU CCDC152 (11751479_a_at) / Fold change /veh CCDC152 (11751479_a_at) / RFU FAM211A (11726209_a_at) / Fold change /veh FAM211A (11726209_a_at) / RFU RGS16 (11746705_a_at) / Fold change /veh RGS16 (11746705_a_at) / RFU VCAN (11755009_s_at) / Fold change /veh VCAN (11755009_s_at) / RFU RHOB (11743442_s_at) / Fold change /veh RHOB (11743442_s_at) / RFU RGS16 (11720943_a_at) / Fold change /veh RGS16 (11720943_a_at) / RFU RGS16 (11720944_at) / Fold change /veh RGS16 (11720944_at) / RFU, VPS4B / Fold change vs veh, VPS4B / RFU, CREB1 / Fold change vs veh, CREB1 / RFU, DNAJC13 / Fold change vs veh, DNAJC13 / RFU, GNAQ / Fold change vs veh, GNAQ / RFU, CDK5R1 / Fold change vs veh, CDK5R1 / RFU, ZRANB3 / Fold change vs veh, ZRANB3 / RFU, CUL4A / Fold change vs veh, CUL4A / RFU, CCNY / Fold change vs veh, CCNY / RFU, UFL1 / Fold change vs veh, UFL1 / RFU, COG3 / Fold change vs veh, COG3 / RFU, DIAPH2 / Fold change vs veh, DIAPH2 / RFU, SKA2 / Fold change vs veh, SKA2 / RFU, AFF3 / Fold change vs veh, AFF3 / RFU, LMF1 / Fold change vs veh, LMF1 / RFU, IPO11 / Fold change vs veh, IPO11 / RFU, DFFB / Fold change vs veh, DFFB / RFU, FOXP1 / Fold change vs veh, FOXP1 / RFU, CARD8 / Fold change vs veh, CARD8 / RFU, STRN3 / Fold change vs veh, STRN3 / RFU, ADK / Fold change vs veh, ADK / RFU, RASSF2 / Fold change vs veh, RASSF2 / RFU, WIPF1 / Fold change vs veh, WIPF1 / RFU, LARP1B / Fold change vs veh, LARP1B / RFU, RASA1 / Fold change vs veh, RASA1 / RFU, RB1 / Fold change vs veh, RB1 / RFU, PPFIA1 / Fold change vs veh, PPFIA1 / RFU, MAT2A / Fold change vs veh, MAT2A / RFU, CCT5 / Fold change vs veh, CCT5 / RFU, WDR92 / Fold change vs veh, WDR92 / RFU, CUX1 / Fold change vs veh, CUX1 / RFU, TTC7A / Fold change vs veh, TTC7A / RFU, TMEM135 / Fold change vs veh, TMEM135 / RFU, DEPTOR / Fold change vs veh, DEPTOR / RFU, CPM / Fold change vs veh, CPM / RFU, DNAJB6 / Fold change vs veh, DNAJB6 / RFU, CACNA2D3 / Fold change vs veh, CACNA2D3 / RFU, DTX4 / Fold change vs veh, DTX4 / RFU, TFCP2 / Fold change vs veh, TFCP2 / RFU, GMCL1 /// GMCL1P1 / Fold change vs veh, GMCL1 /// GMCL1P1 / RFU, AEBP2 / Fold change vs veh, AEBP2 / RFU, SNHG1 /// SNORD22 /// SNORD25 /// SNORD26 /// SNORD27 /// SNORD28 /// SNORD29 /// SNORD31 / Fold change vs veh, SNHG1 /// SNORD22 /// SNORD25 /// SNORD26 /// SNORD27 /// SNORD28 /// SNORD29 /// SNORD31 / Fold change (Aza/veh), C12orf56 (ProbeSet 11735607_a_at) / Fold change (ACY-1035/veh), C12orf56 (ProbeSet 11735607_a_at) / Fold change (Aza/veh), FGFR1OP (ProbeSet 11751329_s_at) / Fold change (ACY-1035/veh), FGFR1OP (ProbeSet 11751329_s_at) / Fold change (Aza/veh), VPS36 (ProbeSet 11739960_a_at) / Fold change (ACY-1035/veh), VPS36 (ProbeSet 11739960_a_at) / RFU SYPL1 (11715823_x_at) / Fold change /veh SYPL1 (11715823_x_at) / RFU IGFBP7 (11715501_s_at) / Fold change /veh IGFBP7 (11715501_s_at) / RFU REEP3 (11722064_at) / Fold change /veh REEP3 (11722064_at) / RFU IGLL1 (11728026_x_at) / Fold change /veh IGLL1 (11728026_x_at): dose or concentration left out as unconfirmed
Settings: MV-4-11 cells, 48 hours

## Nc1ncn([C@@H]2O[C@H](CO)[C@@H](O)[C@H]2O)c(=O)n1 [azacitidine]
  Fold change /veh FIZ1 (11724087_x_at): 1.09
